Measurements taken from patent US20190343793A1, “COMPOSITIONS COMPRISING A CANNABINOID RECEPTOR BINDING LIGAND” (NOVALIQ GMBH, priority 2016, published 2019).

Test: Storage stability in a liquid vehicle comprising a semifluorinated alkane

## CCCCCc1cc(O)c2c(c1)OC(C)(C)[C@@H]1CCC(C)=C[C@@H]21 [delta-9-Tetrahydrocannabinol (THC), (−)-(6aR,10aR)-6,6,9-Trimethyl-3-pentyl-6a,7,8,10a-tetrahydro-6H-benzo[c]chromen-1-ol]
Liquid vehicle comprising at least one semifluorinated alkane
  Storage period when dissolved or suspended in liquid vehicle comprising semifluorinated alkane: up to 2 years
Liquid vehicle with high content of, or essentially consisting of, F4H5 or F6H8
  Stability when air was not excluded: stable even when air was not excluded
